{"source": "patent US5218096A", "about": "“Lactoneotrehalose, and its preparation and uses” (Kabushiki Kaisha Hayashibara Seibutsu Kagaku Kenkyujo, priority 1990, dated 1993)", "key": {"[1]": {"tested_on": "Streptococcus faecalis IAM 10065", "test": "Assimilation by intestinal microorganism", "type": "cell-based", "conditions": "0.5 w/v % saccharide, PYF broth, 37° C., 96 hours", "experimental": "(§1) The resultant broth was diluted 5-fold, and the turbidity of the diluted solution was determined at 750 nm in 1-cm cell cuvette. The growth of the intestinal microorganisms and the assimilability of lactoneotrehalose were both evaluated with the turbidity. As control, glucose and lactose were used in place of lactoneotrehalose."}, "[2]": {"tested_on": "Bifidobacterium infantis JCM 1222", "test": "Assimilation by intestinal microorganism", "type": "cell-based", "conditions": "0.5 w/v % saccharide, PYF broth, 37° C., 96 hours", "experimental": "as §1"}, "[3]": {"tested_on": "Peptostreptococcus prevotii ATCC 9321", "test": "Assimilation by intestinal microorganism", "type": "cell-based", "conditions": "0.5 w/v % saccharide, PYF broth, 37° C., 96 hours", "experimental": "as §1"}, "[4]": {"tested_on": "Eubacterium aerofaciens ATCC 25986", "test": "Assimilation by intestinal microorganism", "type": "cell-based", "conditions": "0.5 w/v % saccharide, PYF broth, 37° C., 96 hours", "experimental": "as §1"}, "[5]": {"tested_on": "Bifidobacterium animalis JCM 1190", "test": "Assimilation by intestinal microorganism", "type": "cell-based", "conditions": "0.5 w/v % saccharide, PYF broth, 37° C., 96 hours", "experimental": "as §1"}, "[6]": {"tested_on": "Bifidobacterium adolescentis JCM 1275", "test": "Assimilation by intestinal microorganism", "type": "cell-based", "conditions": "0.5 w/v % saccharide, PYF broth, 37° C., 96 hours", "experimental": "as §1"}, "[7]": {"tested_on": "Bifidobacterium breve JCM 1192", "test": "Assimilation by intestinal microorganism", "type": "cell-based", "conditions": "0.5 w/v % saccharide, PYF broth, 37° C., 96 hours", "experimental": "as §1"}, "[8]": {"tested_on": "Lactobacillus acidophilus JCM 1132", "test": "Assimilation by intestinal microorganism", "type": "cell-based", "conditions": "0.5 w/v % saccharide, PYF broth, 37° C., 96 hours", "experimental": "as §1"}, "[9]": {"tested_on": "Bifidobacterium longum JCM 1217", "test": "Assimilation by intestinal microorganism", "type": "cell-based", "conditions": "0.5 w/v % saccharide, PYF broth, 37° C., 96 hours", "experimental": "as §1"}, "[10]": {"tested_on": "Lactobacillus plantarum IFO 3070", "test": "Assimilation by intestinal microorganism", "type": "cell-based", "conditions": "0.5 w/v % saccharide, PYF broth, 37° C., 96 hours", "experimental": "as §1"}, "[11]": {"tested_on": "Eubacterium limosum JCM 6421", "test": "Assimilation by intestinal microorganism", "type": "cell-based", "conditions": "0.5 w/v % saccharide, PYF broth, 37° C., 96 hours", "experimental": "as §1"}, "[12]": {"tested_on": "Bacteroides distasonis JCM 5825", "test": "Assimilation by intestinal microorganism", "type": "cell-based", "conditions": "0.5 w/v % saccharide, PYF broth, 37° C., 96 hours", "experimental": "as §1"}, "[13]": {"tested_on": "Escherichia coli IFO 3301", "test": "Assimilation by intestinal microorganism", "type": "cell-based", "conditions": "0.5 w/v % saccharide, PYF broth, 37° C., 96 hours", "experimental": "as §1"}, "[14]": {"tested_on": "Clostridium sporogenes JCM 1416", "test": "Assimilation by intestinal microorganism", "type": "cell-based", "conditions": "0.5 w/v % saccharide, PYF broth, 37° C., 96 hours", "experimental": "as §1"}, "[15]": {"test": "Acidity of aqueous solution", "type": "physicochemical"}, "Solubility": {"test": "Solubility", "type": "physicochemical"}, "[16]": {"tested_on": "microorganisms of the genus Bifidobacterium", "test": "Assimilation by intestinal microorganism, overall finding", "type": "cell-based", "conditions": "conclusion from Table 3", "experimental": "as §1"}, "[17]": {"test": "Digestion test in vitro, hydrolysis rate", "type": "in vitro ADME", "conditions": "salivary amylase, read-out: hydrolysis rate (the ratio of reducing sugars against total sugars)", "method": "(§2) In accordance with the method reported in Okada et al., Journal of Japanese Society of Nutrition and Food Science, Vol.43, No.1, pp.23-29 (1990), a crystalline lactoneotrehalose specimen prepared by the method in Experiment 1 was tested for its digestibility in vitro, and the digestibility was evaluated based on the hydrolysis rate (the ratio of reducing sugars against total sugars)."}, "[18]": {"test": "Digestion test in vitro, hydrolysis rate", "type": "in vitro ADME", "conditions": "amylopsin, read-out: hydrolysis rate (the ratio of reducing sugars against total sugars)", "method": "as §2"}, "[19]": {"test": "Digestion test in vitro, hydrolysis rate", "type": "in vitro ADME", "conditions": "small intestinal mucosa enzyme; in vitro, enzyme of small intestinal mucous membrane; read-out: hydrolysis rate (the ratio of reducing sugars against total sugars)", "method": "as §2"}, "[20]": {"tested_on": "Enzyme of small intestinal mucous membrane", "test": "Digestion test in vitro, hydrolysis rate", "type": "in vitro ADME", "conditions": "conclusion from Table 1", "method": "as §2"}, "[21]": {"test": "Digestion test in vitro, hydrolysis rate", "type": "in vitro ADME", "conditions": "gastric juice, read-out: hydrolysis rate (the ratio of reducing sugars against total sugars)", "method": "as §2"}, "Heat of dissolution": {"test": "Heat of dissolution", "type": "physicochemical"}, "Coloring reaction": {"test": "Coloring reaction", "type": "physicochemical"}, "mice": {"tested_on": "mice", "test": "Acute toxicity test, oral", "text": "A crystalline lactoneotrehalose specimen, prepared by the method in Experiment 1, was orally administered to 7 week-old dd mice for acute toxicity test."}, "[22]": {"test": "Hygroscopicity, deliquescence and moisture content", "type": "physicochemical", "text": "(9) Physical properties and color Colorless and transparent crystal having a true specific gravity of 1.59."}}, "note": "Like-named read-outs stand apart in the source and are kept apart here."}
{"smiles": "O=C[C@H](O)[C@@H](O)[C@H](O)[C@H](O)CO", "note": "[Glucose, glucose]", "values": [{"measurement": "Judgement of turbidity (A750 × 5)", "setting": "[1]", "result": "++ (0.2 or higher but less than 0.3)"}, {"measurement": "Judgement of turbidity (A750 × 5)", "setting": "[2]", "result": "++ (0.2 or higher but less than 0.3)"}, {"measurement": "Judgement of turbidity (A750 × 5)", "setting": "[3]", "result": "- (less than 0.1)"}, {"measurement": "Judgement of turbidity (A750 × 5)", "setting": "[4]", "result": "+++ (0.3 or higher)"}, {"measurement": "Judgement of turbidity (A750 × 5)", "setting": "[5]", "result": "++ (0.2 or higher but less than 0.3)"}, {"measurement": "Judgement of turbidity (A750 × 5)", "setting": "[6]", "result": "++ (0.2 or higher but less than 0.3)"}, {"measurement": "Judgement of turbidity (A750 × 5)", "setting": "[7]", "result": "++ (0.2 or higher but less than 0.3)"}, {"measurement": "Judgement of turbidity (A750 × 5)", "setting": "[8]", "result": "+ (0.15 or higher but less than 0.2)"}, {"measurement": "Judgement of turbidity (A750 × 5)", "setting": "[9]", "result": "++ (0.2 or higher but less than 0.3)"}, {"measurement": "Judgement of turbidity (A750 × 5)", "setting": "[10]", "result": "+ (0.15 or higher but less than 0.2)"}, {"measurement": "Judgement of turbidity (A750 × 5)", "setting": "[11]", "result": "± (0.1 or higher but less than 0.15)"}, {"measurement": "Judgement of turbidity (A750 × 5)", "setting": "[12]", "result": "± (0.1 or higher but less than 0.15)"}, {"measurement": "Judgement of turbidity (A750 × 5)", "setting": "[13]", "result": "++ (0.2 or higher but less than 0.3)"}]}
{"smiles": "OC[C@H]1O[C@@H](O[C@H]2[C@H](O)[C@@H](O)C(O)O[C@@H]2CO)[C@H](O)[C@@H](O)[C@H]1O", "note": "(stereo partly drawn) [Lactose, O-β-D-galactopyranosyl-(1→4)-D-glucose]", "values": [{"measurement": "Judgement of turbidity (A750 × 5)", "setting": "[1]", "result": "+ (0.15 or higher but less than 0.2)"}, {"measurement": "Judgement of turbidity (A750 × 5)", "setting": "[2]", "result": "++ (0.2 or higher but less than 0.3)"}, {"measurement": "Judgement of turbidity (A750 × 5)", "setting": "[3]", "result": "- (less than 0.1)"}, {"measurement": "Judgement of turbidity (A750 × 5)", "setting": "[14]", "result": "- (less than 0.1)"}, {"measurement": "Judgement of turbidity (A750 × 5)", "setting": "[4]", "result": "++ (0.2 or higher but less than 0.3)"}, {"measurement": "Judgement of turbidity (A750 × 5)", "setting": "[5]", "result": "++ (0.2 or higher but less than 0.3)"}, {"measurement": "Judgement of turbidity (A750 × 5)", "setting": "[6]", "result": "++ (0.2 or higher but less than 0.3)"}, {"measurement": "Judgement of turbidity (A750 × 5)", "setting": "[7]", "result": "+++ (0.3 or higher)"}, {"measurement": "Judgement of turbidity (A750 × 5)", "setting": "[8]", "result": "+ (0.15 or higher but less than 0.2)"}, {"measurement": "Judgement of turbidity (A750 × 5)", "setting": "[9]", "result": "++ (0.2 or higher but less than 0.3)"}, {"measurement": "Judgement of turbidity (A750 × 5)", "setting": "[10]", "result": "+ (0.15 or higher but less than 0.2)"}, {"measurement": "Judgement of turbidity (A750 × 5)", "setting": "[11]", "result": "- (less than 0.1)"}, {"measurement": "Judgement of turbidity (A750 × 5)", "setting": "[12]", "result": "± (0.1 or higher but less than 0.15)"}, {"measurement": "Judgement of turbidity (A750 × 5)", "setting": "[13]", "result": "± (0.1 or higher but less than 0.15)"}]}
{"smiles": "OC[C@H]1O[C@@H](O[C@H]2[C@H](O)[C@@H](O)[C@H](O[C@H]3O[C@H](CO)[C@@H](O)[C@H](O)[C@H]3O)O[C@@H]2CO)[C@H](O)[C@@H](O)[C@H]1O", "note": "[lactoneotrehalose, O-β-D-galactopyranosyl-(1→4)-O-β-D-glucopyranosyl α-D-glucopyranoside]", "values": [{"measurement": "Judgement of turbidity (A750 × 5)", "setting": "[1]", "result": "- (less than 0.1)"}, {"measurement": "Judgement of turbidity (A750 × 5)", "setting": "[2]", "result": "++ (0.2 or higher but less than 0.3)"}, {"measurement": "Judgement of turbidity (A750 × 5)", "setting": "[3]", "result": "- (less than 0.1)"}, {"measurement": "Judgement of turbidity (A750 × 5)", "setting": "[14]", "result": "- (less than 0.1)"}, {"measurement": "Judgement of turbidity (A750 × 5)", "setting": "[4]", "result": "- (less than 0.1)"}, {"measurement": "Judgement of turbidity (A750 × 5)", "setting": "[5]", "result": "++ (0.2 or higher but less than 0.3)"}, {"measurement": "Judgement of turbidity (A750 × 5)", "setting": "[6]", "result": "++ (0.2 or higher but less than 0.3)"}, {"measurement": "Judgement of turbidity (A750 × 5)", "setting": "[7]", "result": "++ (0.2 or higher but less than 0.3)"}, {"measurement": "Judgement of turbidity (A750 × 5)", "setting": "[8]", "result": "± (0.1 or higher but less than 0.15)"}, {"measurement": "Judgement of turbidity (A750 × 5)", "setting": "[9]", "result": "++ (0.2 or higher but less than 0.3)"}, {"measurement": "Judgement of turbidity (A750 × 5)", "setting": "[10]", "result": "- (less than 0.1)"}, {"measurement": "Judgement of turbidity (A750 × 5)", "setting": "[11]", "result": "- (less than 0.1)"}, {"measurement": "Judgement of turbidity (A750 × 5)", "setting": "[12]", "result": "- (less than 0.1)"}, {"measurement": "Judgement of turbidity (A750 × 5)", "setting": "[13]", "result": "- (less than 0.1)"}, {"measurement": "acidity of aqueous solution of the crystal", "setting": "[15]", "result": "neutral or slight acidity"}, {"measurement": "Solubility in solvents", "setting": "Solubility; 0.1N hydrochloric acid", "result": "Readily soluble"}, {"measurement": "Solubility in solvents", "setting": "Solubility; 0.1N sodium hydroxide", "result": "Readily soluble"}, {"measurement": "Solubility in solvents", "setting": "Solubility; chloroform", "result": "insoluble"}, {"measurement": "Solubility in solvents", "setting": "Solubility; ethanol", "result": "scarcely soluble"}, {"measurement": "Solubility in solvents", "setting": "Solubility; ethyl acetate", "result": "insoluble"}, {"measurement": "Solubility in solvents", "setting": "Solubility; methanol", "result": "scarcely soluble"}, {"measurement": "Solubility in solvents", "setting": "Solubility; water", "result": "Readily soluble"}, {"measurement": "solubility", "setting": "Solubility; water, 25° C.", "result": 217, "unit": "mg/mL"}, {"measurement": "selective utilization by genus Bifidobacterium", "setting": "[16]", "result": "selectively utilized at a relatively high-level by microorganisms of the genus Bifidobacterium"}, {"measurement": "metabolised", "setting": "[17]", "result": 0, "unit": "%"}, {"measurement": "metabolised", "setting": "[18]", "result": 0, "unit": "%"}, {"measurement": "metabolised", "setting": "[19]", "result": 60.2, "unit": "%"}, {"measurement": "main site of hydrolysis", "setting": "[20]", "result": "mainly hydrolyzed by the enzyme from intestinal mucous membrane"}, {"measurement": "metabolised", "setting": "[21]", "result": 0, "unit": "%"}, {"measurement": "Heat of dissolution", "setting": "Heat of dissolution", "result": 20.0, "unit": "cal/g"}, {"measurement": "Fehling's reaction", "setting": "Coloring reaction", "result": "Negative"}, {"measurement": "iodine coloration reaction", "setting": "Coloring reaction", "result": "Negative"}, {"measurement": "mortality", "setting": "mice; 7 week-old dd mice, up to 5 g", "result": "no mouse died"}, {"measurement": "toxicity", "setting": "mice; dd mice, conclusion", "result": "extremely low in toxicity"}, {"measurement": "hygroscopicity and deliquescence", "setting": "[22]", "result": "Free of hygroscopicity and deliquescence"}, {"measurement": "moisture content of crystals", "setting": "[22]; Karl Fischer's method, predried in vacuo at 60° C. for 16 hours", "result": "less than 3.0%"}]}
